Assays:
Assay type in all cases: functional; call rule not given here
[1] = target: T1, Peroxisome proliferator-activated receptor alpha (Homo sapiens, UniProt Q07869); test: Agonist activity at human recombinant PPARalpha by GAL4 transactivation assay
T1 sequence (Q07869 whole entry): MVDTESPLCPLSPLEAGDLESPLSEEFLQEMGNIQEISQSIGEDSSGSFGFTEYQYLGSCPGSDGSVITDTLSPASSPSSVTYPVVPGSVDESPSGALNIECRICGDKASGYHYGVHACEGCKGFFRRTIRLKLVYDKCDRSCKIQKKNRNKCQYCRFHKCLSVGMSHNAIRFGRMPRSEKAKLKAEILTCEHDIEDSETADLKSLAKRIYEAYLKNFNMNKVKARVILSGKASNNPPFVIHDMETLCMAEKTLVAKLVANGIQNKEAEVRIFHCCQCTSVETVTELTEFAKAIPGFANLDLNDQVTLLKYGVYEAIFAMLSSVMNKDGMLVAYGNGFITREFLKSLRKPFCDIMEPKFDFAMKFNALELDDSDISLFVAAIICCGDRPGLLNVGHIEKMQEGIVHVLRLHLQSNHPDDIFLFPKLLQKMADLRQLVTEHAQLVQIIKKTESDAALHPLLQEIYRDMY

[2] = target: T2, Peroxisome proliferator-activated receptor gamma (Homo sapiens, UniProt P37231); test: Agonist activity at human recombinant PPARgamma by GAL4 transactivation assay
T2 sequence (P37231 whole entry): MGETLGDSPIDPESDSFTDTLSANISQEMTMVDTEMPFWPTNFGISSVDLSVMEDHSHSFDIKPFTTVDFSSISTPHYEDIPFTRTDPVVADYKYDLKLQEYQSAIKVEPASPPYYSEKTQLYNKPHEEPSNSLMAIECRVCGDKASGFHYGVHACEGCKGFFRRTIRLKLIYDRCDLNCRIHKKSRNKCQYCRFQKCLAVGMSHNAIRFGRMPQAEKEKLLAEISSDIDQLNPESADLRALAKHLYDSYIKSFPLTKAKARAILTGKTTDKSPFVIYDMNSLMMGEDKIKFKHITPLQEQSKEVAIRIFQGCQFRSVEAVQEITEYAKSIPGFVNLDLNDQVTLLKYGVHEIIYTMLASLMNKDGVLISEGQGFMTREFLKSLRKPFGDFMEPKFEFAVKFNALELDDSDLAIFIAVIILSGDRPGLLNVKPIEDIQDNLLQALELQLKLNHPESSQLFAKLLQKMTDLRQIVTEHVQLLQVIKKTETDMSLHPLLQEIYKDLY

[3] = target: T3, Peroxisome proliferator-activated receptor delta (Homo sapiens, UniProt Q03181); test: Agonist activity at human recombinant PPARdelta by GAL4 transactivation assay
T3 sequence (Q03181 whole entry): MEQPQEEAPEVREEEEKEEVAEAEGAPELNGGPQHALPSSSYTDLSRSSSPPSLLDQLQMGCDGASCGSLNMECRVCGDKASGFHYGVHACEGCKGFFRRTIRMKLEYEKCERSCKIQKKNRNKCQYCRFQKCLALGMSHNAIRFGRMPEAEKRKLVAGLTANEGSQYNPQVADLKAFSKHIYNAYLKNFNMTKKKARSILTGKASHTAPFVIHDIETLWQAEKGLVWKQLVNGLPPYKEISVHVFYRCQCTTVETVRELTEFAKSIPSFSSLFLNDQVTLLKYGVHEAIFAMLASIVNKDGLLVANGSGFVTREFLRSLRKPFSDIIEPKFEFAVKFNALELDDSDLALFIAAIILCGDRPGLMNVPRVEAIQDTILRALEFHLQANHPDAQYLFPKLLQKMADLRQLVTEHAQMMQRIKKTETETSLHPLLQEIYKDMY

[4] = tested on: Rattus norvegicus; test: Decrease in triglyceride level in Sprague-Dawley rat at 1 mg/kg after 7 days; parameters: scale not given: the % may be the effect or the level left
[5] = tested on: Rattus norvegicus; test: Increase in liver weight in Sprague-Dawley rat at 1 mg/kg after 7 days
[6] = tested on: Mus musculus; test: Increase in plasma HDL-C in human apoA1 transgenic mouse at 3 mg/kg after 14 days
[7] = tested on: Mus musculus; test: Increase in plasma HDL-C in human apoA1 transgenic mouse at 300 mg/kg after 14 days
[8] = tested on: Mus musculus; test: Increase in plasma HDL-C in human apoA1 transgenic mouse at 1 mg/kg after 14 days

EC50 ([1]; read-out: EC50)	EC50 ([2]; read-out: EC50)	EC50 ([3]; read-out: EC50)	SMILES	further results
180 nM	> 10000 nM	140 nM	CCC(Oc1cccc(CN(CCCOc2ccccc2)c2nc3cc(O)ccc3o2)c1)C(=O)O (centres undefined)	
8 nM	> 10000 nM		CCC(Oc1cccc(CN(CCCOc2ccc(F)cc2)c2nc3ccccc3o2)c1)C(=O)O (centres undefined)	
	> 10000 nM		CCC(Oc1cccc(CN(CCCOc2ccc(OC)cc2)c2nc3ccccc3o2)c1)C(=O)O (centres undefined)	
24 nM	> 10000 nM	1400 nM	CCC(Oc1cccc(CN(CCCOc2cccc([N+](=O)[O-])c2)c2nc3ccccc3o2)c1)C(=O)O (centres undefined)	
	210 nM	120 nM	CCC(Oc1cccc(CN(CCCOc2ccc(C)cc2)c2nc3ccccc3o2)c1)C(=O)O (centres undefined)	
1 nM	750 nM	830 nM	CCC(Oc1cccc(CN(CCCOc2ccc(C)c(C)c2)c2nc3ccccc3o2)c1)C(=O)O (centres undefined)	
11 nM	2100 nM	6500 nM	CCC(Oc1cccc(CN(CCCOc2ccc(F)cc2F)c2nc3ccccc3o2)c1)C(=O)O (centres undefined)	
20 nM	1190 nM	1570 nM	CC[C@H](Oc1cccc(CN(CCCOc2ccc(F)cc2)c2nc3ccccc3o2)c1)C(=O)O	
	1310 nM	1800 nM	CC[C@H](Oc1cccc(CN(CCCOc2ccc(OC)cc2)c2nc3ccccc3o2)c1)C(=O)O	
9 nM	> 10000 nM		CCC(Oc1cccc(CN(CCCOc2ccccc2)c2nc3ccccc3o2)c1)C(=O)O (centres undefined)	
5 nM	1100 nM	1900 nM	CCC(Oc1cccc(CN(CCCOc2ccccc2)c2nc3ccc(F)cc3o2)c1)C(=O)O (centres undefined)	
2 nM	1800 nM	1300 nM	CCC(Oc1cccc(CN(CCCOc2ccc(F)c(F)c2)c2nc3ccccc3o2)c1)C(=O)O (centres undefined)	
130 nM	870 nM	1660 nM	CC[C@H](Oc1cccc(CN(CCCOc2ccccc2)c2nc3ccccc3o2)c1)C(=O)O	
7 nM	1800 nM	1700 nM	CCC(Oc1cccc(CN(CCCOc2ccc3c(c2)OCO3)c2nc3ccccc3o2)c1)C(=O)O (centres undefined)	
		1580 nM	CC[C@@H](Oc1cccc(CN(CCCOc2ccc(OC)cc2)c2nc3ccccc3o2)c1)C(=O)O [PEMAFIBRATE]	Activity [4]: -49%; Activity [5]: 25%; Activity [8]: 194%

The remaining lines, values behind:

SMILES	EC50 ([1]; read-out: EC50)	EC50 ([2]; read-out: EC50)	EC50 ([3]; read-out: EC50)	further results
CCC(Oc1cccc(CN(CCCOc2ccccc2)c2nc3cc(C(F)(F)F)ccc3o2)c1)C(=O)O (centres undefined)	23 nM	400 nM	160 nM	
CCC(Oc1cccc(CN(CCCOc2ccccc2)c2nc3cc(C)ccc3o2)c1)C(=O)O (centres undefined)	100 nM	> 10000 nM	5000 nM	
CCC(Oc1cccc(CN(CCCOc2ccc(O)cc2)c2nc3ccccc3o2)c1)C(=O)O (centres undefined)	260 nM	1400 nM	3 nM	
CC[C@@H](Oc1cccc(CN(CCCOc2ccc(F)cc2)c2nc3ccccc3o2)c1)C(=O)O				Activity [4]: -46%; Activity [5]: 20%; Activity [6]: 147%
CC(C)(Oc1ccccc1CN(CCOc1ccccc1)c1nc2ccccc2o1)C(=O)O				EC50 [1]: Not Active; EC50 [2]: Not Active; EC50 [3]: Not Active
CC(C)(Oc1ccc(CN(CCOc2ccccc2)c2nc3ccccc3o2)cc1)C(=O)O				EC50 [1]: Not Active; EC50 [2]: Not Active; EC50 [3]: Not Active
CC(C)(Oc1cccc(CN(CCOc2ccccc2)c2nc3ccccc3o2)c1)C(=O)O	630 nM	2100 nM		
CC(C)(Oc1cccc(CN(CCCOc2ccccc2)c2nc3ccccc3o2)c1)C(=O)O	190 nM	5000 nM	1400 nM	
CC(Oc1cccc(CN(CCCOc2ccccc2)c2nc3ccccc3o2)c1)C(=O)O (centres undefined)			2700 nM	
CC(Oc1cccc(CCN(CCCOc2ccccc2)c2nc3ccccc3o2)c1)C(=O)O (centres undefined)	10 nM	1800 nM	2300 nM	
CC[C@@H](Oc1cccc(CN(CCCOc2ccccc2)c2nc3ccccc3o2)c1)C(=O)O				Activity [4]: -51%; Activity [5]: 19%; Activity [6]: 201%
CCC(Oc1cccc(CN(CCCOc2ccccc2)c2nc3c(O)cccc3o2)c1)C(=O)O (centres undefined)	160 nM	2000 nM	1900 nM	
CCC(Oc1cccc(CN(CCCOc2ccc(S(=O)(=O)OC)cc2)c2nc3ccccc3o2)c1)C(=O)O (centres undefined)	120 nM	> 10000 nM		
CC(C)(Oc1cccc(CCCN(CCOc2ccccc2)c2nc3ccccc3o2)c1)C(=O)O		100 nM	800 nM	
CCC(Oc1cccc(CN(CCCOc2ccccc2)c2nc3cccc(F)c3o2)c1)C(=O)O (centres undefined)	2 nM	530 nM	8000 nM	
CCC(Oc1cccc(CN(CCCOc2ccc(C)cc2C)c2nc3ccccc3o2)c1)C(=O)O (centres undefined)	1 nM	130 nM	110 nM	
CC(C)OC(=O)C(C)(C)Oc1ccc(C(=O)c2ccc(Cl)cc2)cc1 [FENOFIBRATE]				Activity [7]: 145%

— ChEMBL document CHEMBL1140024 (Bioorg Med Chem Lett, 2007)
